Numbered stars: 1 amine (or outer) side, 2 acyl side, 3 side chain; on linkers, the order of the positions; unused ones are H or OH. Bridge positions count the residues as written; N and C are the ends. Square brackets hold non-standard residues; d marks the D form. Peptide text beside a SMILES is read from it. * marks the point of attachment. ξ: configuration not given here. pTerphenylCO(4''-OnC5H11) = CCCCCOc1ccc(-c2ccc(-c3ccc(C(=O)*)cc3)cc2)cc1; Orn(4R-OH,5R-OH) = O=C([C@H](C[C@@H](O)[C@@H](O)N[*:3])N[*:1])[*:2]; X8 = O=C(C[C@@H](CCc1ccc(-c2ccc(OCCCc3ccccc3)cc2)cc1)N[*:2])[*:1]; hTyr(3S-OH,4S-OH) = N[C@H](C(=O)O)[C@H](O)[C@@H](O)c1ccc(O)cc1; X5 = CC(C)CCCOc1ccc(-c2ccc(CC[C@H](CC(=O)[*:1])N[*:2])cc2)cc1; X13 = CCCCCOc1ccc(-c2ccc(CC[C@H](CC(=O)[*:1])N[*:2])cc2)cc1; X10 = CCCCCCCCCOc1ccc2cc(CC[C@H](CC(=O)[*:1])N[*:2])ccc2c1; Pro(3S-OH,4S-Me) = C[C@H]1CN[C@H](C(=O)O)[C@H]1O; X6 = CCCCCCCCCCCCC[C@H](CC(=O)NC(C(=O)O)C(C)O)O*; X12 = NCC(=O)Nc1cc(CC(N[*:1])C(=O)[*:2])ccc1O; X9 = CCCCCCCCCCCCC[C@H](CC(=O)[*:1])O[*:2]; X2 = NC(=O)CC(O)C(N[*:1])C(=O)[*:2]; ξDopa = NC(Cc1ccc(O)c(O)c1)C(=O)O; Hyp = O=C(O)[C@@H]1C[C@@H](O)CN1; X1 = O=C(C1C(O)CCN1[*:1])[*:2]; ξY = NC(Cc1ccc(O)cc1)C(=O)O; ξHyp = O=C(O)C1CC(O)CN1; ξOrn = NCCCC(N)C(=O)O; ξT = CC(O)C(N)C(=O)O; ξV = CC(C)C(N)C(=O)O; ξP = O=C(O)C1CCCN1; ξA = CC(N)C(=O)O; Sar = CNCC(=O)O

Results on 13 compounds are retold here after US6489440B1, “Cyclic compounds” (Basilea Pharmaceutica AG, priority 1998, dated 2002).

For the first series, the system named is Candida albicans. Kind of series: In vivo antifungal efficacy, systemic candidiasis in mice. The arrangement: species or system Crj: CD-1 (ICR) mice. The following applies: i.v., b.i.d×1 day followed by q.d.×2 days; from survival on day 14. As to the method:
Mice of a conventional immunocompetent mouse strain, Crj: CD-1 (ICR) were used for experimental infection models of systemic candidiasis. 4 weeks old Crj: CD-1 (ICR) mice were used for systemic candidiasis by injecting Candida albicans 5×10^6 conidia/mouse via the tail vein. Treatments were given twice (0, 4 h after infection) on the first day and once daily on following 2 days for systemic candidiasis (b.i.d×1 day followed by q.d.×2 days), intravenously (i.v.). 50% of effective dose (ED50) values was calculated from the survival number at each dose on day 14.
On to `CC(C)CCCOc1ccc(-c2ccc(CC[C@@H]3CC(=O)NC(C(C)O)C(=O)NC(C)C(=O)NC(Cc4ccc(O)cc4)C(=O)NC(C(C)C)C(=O)N4CC(O)CC4C(=O)NC(C(C)O)C(=O)NC(C(C)O)C(=O)N4CCC(O)C4C(=O)NC(C(O)CC(N)=O)C(=O)NCC(=O)NC(C(C)O)C(=O)NC(CCCN)C(=O)N3)cc2)cc1` (some centres unmarked) [Aerothricin 45] ([ξT][ξA][ξY][ξV][ξHyp][ξT][ξT][X1][X2]G[ξT][ξOrn]; linker N-C via X5), for which the “In vivo antifungal activity against systemic candidiasis in mice, ED50 on day 14” value (from here on “In vivo antifungal activity”) was 0.3 mg/kg.

With `CCCCCCCCCCOc1ccc(CC[C@@H]2CC(=O)NC(C(C)O)C(=O)NC(C)C(=O)NC(Cc3ccc(O)cc3)C(=O)NC(C(C)C)C(=O)N3CC(O)CC3C(=O)NC(C(C)O)C(=O)NC(C(C)O)C(=O)N3CCC(O)C3C(=O)NC(C(O)CC(N)=O)C(=O)NCC(=O)NC(C(C)O)C(=O)NC(CCCN)C(=O)N2)cc1` (some centres unmarked) [Aerothricin 36], the “In vivo antifungal activity” value is 0.6 mg/kg.

With `CCCCCOc1ccc(-c2ccc(CC[C@@H]3CC(=O)NC(C(C)O)C(=O)NC(C)C(=O)NC(Cc4ccc(O)cc4)C(=O)NC(C(C)C)C(=O)N4CC(O)CC4C(=O)NC(C(C)O)C(=O)NC(C(C)O)C(=O)N4CCC(O)C4C(=O)NC(C(O)CC(N)=O)C(=O)NCC(=O)NC(C(C)O)C(=O)NC(CCCN)C(=O)N3)cc2)cc1` (some centres unmarked) [Aerothricin 41] ([ξT][ξA][ξY][ξV][ξHyp][ξT][ξT][X1][X2]G[ξT][ξOrn]; linker N-C via X13), the “In vivo antifungal activity” value is on record as 0.3 mg/kg.

Regarding `CCCCCCCCCCCCC[C@@H]1CC(=O)NC(C(C)O)C(=O)NC(C)C(=O)NC(Cc2ccc(OC)cc2)C(=O)NC(C(C)C)C(=O)N2CC(O)CC2C(=O)NC(C(C)O)C(=O)NC(C(C)O)C(=O)N2CCC(O)C2C(=O)NC(C(O)CC(N)=O)C(=O)NCC(=O)NC(C(C)O)C(=O)NC(CCCN)C(=O)O1` (some centres unmarked) [Aerothricin 5] ([ξT][ξA][ξY](Me)[ξV][ξHyp][ξT][ξT][X1][X2]G[ξT][ξOrn]; linker N-C via X9), the “In vivo antifungal activity” value is listed as 0.3 mg/kg.

On to `CC1NC(=O)C(C(C)O)NC(=O)C[C@@H](CCc2ccc(-c3ccc(OCCCc4ccccc4)cc3)cc2)NC(=O)C(CCCN)NC(=O)C(C(C)O)NC(=O)CNC(=O)C(C(O)CC(N)=O)NC(=O)C2C(O)CCN2C(=O)C(C(C)O)NC(=O)C(C(C)O)NC(=O)C2CC(O)CN2C(=O)C(C(C)C)NC(=O)C(Cc2ccc(O)cc2)NC1=O` (some centres unmarked) [Aerothricin 46] ([ξT][ξA][ξY][ξV][ξHyp][ξT][ξT][X1][X2]G[ξT][ξOrn]; linker N-C via X8), for which the “In vivo antifungal activity” value came to 0.4 mg/kg.

The test system of the next series is mouse hepatocytes. Kind of series: In vitro hepatotoxicity test. In kind it is cell-based. The following applies: mouse hepatocyte monolayers exposed 1 day, morphological evaluation. The source says:
The mouse hepatocytes were isolated by a collagenase digestion and cultured in microtest plates. The hepatocyte monolayers were exposed to the test Aerothricins in the culture system for 1 day. After the culture period, the hepatocytes were observed under a microscope and evaluated morphologically. The degree of the morphological alteration (degeneration) of the hepatocytes by the test Aerothricins were compared with WF 11243 and LY303366.
With `CC(C)CCCOc1ccc(-c2ccc(CC[C@@H]3CC(=O)NC(C(C)O)C(=O)NC(C)C(=O)NC(Cc4ccc(O)cc4)C(=O)NC(C(C)C)C(=O)N4CC(O)CC4C(=O)NC(C(C)O)C(=O)NC(C(C)O)C(=O)N4CCC(O)C4C(=O)NC(C(O)CC(N)=O)C(=O)NCC(=O)NC(C(C)O)C(=O)NC(CCCN)C(=O)N3)cc2)cc1` (some centres unmarked) [Aerothricin 45] ([ξT][ξA][ξY][ξV][ξHyp][ξT][ξT][X1][X2]G[ξT][ξOrn]; linker N-C via X5), the Cytotoxicity to hepatocyte is over 100 µg/mL.

`CCCCCCCCCOc1ccc2cc(CC[C@@H]3CC(=O)NC(C(C)O)C(=O)NC(C)C(=O)NC(Cc4ccc(O)cc4)C(=O)NC(C(C)C)C(=O)N4CC(O)CC4C(=O)NC(C(C)O)C(=O)NC(C(C)O)C(=O)N4CCC(O)C4C(=O)NC(C(O)CC(N)=O)C(=O)NCC(=O)NC(C(C)O)C(=O)NC(CCCN)C(=O)N3)ccc2c1` (some centres unmarked) [Aerothricin 53] ([ξT][ξA][ξY][ξV][ξHyp][ξT][ξT][X1][X2]G[ξT][ξOrn]; linker N-C via X10) had a Cytotoxicity to hepatocyte of over 100 µg/mL.

For `CCCCCCCCCCCCC[C@@H]1CC(=O)NC(C(C)O)C(=O)NC(C)C(=O)NC(Cc2ccc(O)cc2)C(=O)NC(C(C)C)C(=O)N2CC(O)CC2C(=O)NC(C(C)O)C(=O)NC(C(C)O)C(=O)N2CCC(O)C2C(=O)NC(C(O)CC(N)=O)C(=O)NCC(=O)NC(C(C)O)C(=O)NC(CCCNC(=O)C2CCCN2)C(=O)O1` (some centres unmarked) [Aerothricin 15] ([ξT][ξA][ξY][ξV][ξHyp][ξT][ξT][X1][X2]G[ξT][ξOrn](ξP); linker N-C via X9), the Cytotoxicity to hepatocyte was over 100 µg/mL.

On to `CCCCCCCCCCCCC[C@@H]1CC(=O)NC(C(C)O)C(=O)NC(C)C(=O)NC(Cc2ccc(O)cc2)C(=O)NC(C(C)C)C(=O)N2CC(O)CC2C(=O)NC(C(C)O)C(=O)NC(C(C)O)C(=O)N2CCC(O)C2C(=O)NC(C(O)CC(N)=O)C(=O)NCC(=O)NC(C(C)O)C(=O)NC(CCCNC(=O)CNC)C(=O)O1` (some centres unmarked) [Aerothricin 14] ([ξT][ξA][ξY][ξV][ξHyp][ξT][ξT][X1][X2]G[ξT][ξOrn](Sar); linker N-C via X9), for which the Cytotoxicity to hepatocyte was over 100 µg/mL.

The compound `CCCCCCCCCCOc1ccc(CC[C@@H]2CC(=O)NC(C(C)O)C(=O)NC(C)C(=O)NC(Cc3ccc(O)cc3)C(=O)NC(C(C)C)C(=O)N3CC(O)CC3C(=O)NC(C(C)O)C(=O)NC(C(C)O)C(=O)N3CCC(O)C3C(=O)NC(C(O)CC(N)=O)C(=O)NCC(=O)NC(C(C)O)C(=O)NC(CCCN)C(=O)N2)cc1` (single isomer, unassigned) [Aerothricin 47] gave a Cytotoxicity to hepatocyte of over 100 µg/mL.

For the compound `CCCCCOc1ccc(-c2ccc(-c3ccc(C(=O)N[C@H]4C[C@@H](O)[C@@H](O)NC(=O)[C@@H]5[C@@H](O)[C@@H](C)CN5C(=O)[C@H]([C@@H](C)O)NC(=O)[C@H]([C@H](O)[C@@H](O)c5ccc(O)cc5)NC(=O)[C@@H]5C[C@@H](O)CN5C(=O)[C@H]([C@@H](C)O)NC4=O)cc3)cc2)cc1` [LY303366, reference compound] ({pTerphenylCO(4''-OnC5H11)}-[Orn(4R-OH,5R-OH)]T[Hyp][hTyr(3S-OH,4S-OH)]T[Pro(3S-OH,4S-Me)]; lactam 1-C), the Cytotoxicity to hepatocyte turned out to be 10 µg/mL.

As for `CCCCCCCCCCCCC[C@@H]1CC(=O)NC(C(C)O)C(=O)NC(C)C(=O)NC(Cc2ccc(O)c(NC(=O)CN)c2)C(=O)NC(C(C)C)C(=O)N2CC(O)CC2C(=O)NC(C(C)O)C(=O)NC(C(C)O)C(=O)N2CCC(O)C2C(=O)NC(C(O)CC(N)=O)C(=O)NCC(=O)NC(C(C)O)C(=O)NC(CCCNC(=O)CN)C(=O)O1` (some centres unmarked) [Aerothricin 21] ([ξT][ξA][X12][ξV][ξHyp][ξT][ξT][X1][X2]G[ξT][ξOrn](Gly); linker N-C via X9), the Cytotoxicity to hepatocyte was over 100 µg/mL.

Tested on in another series: not listed separately
The series can be described thus: Solubility. The following applies: solvents in which soluble.
For the compound `CCCCCCCCCCCCC[C@@H]1CC(=O)NC(C(C)O)C(=O)NC(C)C(=O)NC(Cc2ccc(O)c(O)c2)C(=O)NC(C(C)C)C(=O)N2CC(O)CC2C(=O)NC(C(C)O)C(=O)NC(C(C)O)C(=O)N2CCC(O)C2C(=O)NC(C(O)CC(N)=O)C(=O)NCC(=O)NC(C(C)O)C(=O)NC(CCCN)C(=O)O1` (some centres unmarked) [Aerothricin 2] ([ξT][ξA][ξDopa][ξV][ξHyp][ξT][ξT][X1][X2]G[ξT][ξOrn]; linker N-C via X9), the Solubility entry was “Soluble: water, methanol, dimethylsulfoxide”.

As to `CCCCCCCCCCCCC[C@H](CC(=O)NC(C(=O)O)C(C)O)OC(=O)C(CCCN)NC(=O)C(NC(=O)CNC(=O)C(NC(=O)C1C(O)CCN1C(=O)C(NC(=O)C(NC(=O)C1CC(O)CN1C(=O)C(N)C(C)C)C(C)O)C(C)O)C(O)CC(N)=O)C(C)O` (some centres unmarked) [Compound (IX)] (H-[ξV][ξHyp][ξT][ξT][X1][X2]G[ξT][ξOrn]-X6), the Solubility result is listed as “Soluble: water, methanol, dimethylsulfoxide”.
